Laboratory results reported in patent publication US5643893A, “N-substituted-(Dihydroxyboryl)alkyl purine, indole and pyrimidine derivatives, useful as inhibitors of inflammatory cytokines” (Macronex, Inc., priority 1994, dated 1997).

How the values were obtained:
HIV-1 = details: 12 weeks, p<0.05; cited from earlier work
TNF-α = details: cited from earlier work
[1] = test system: HIV-1 in peripheral blood mononuclear cells; details: advanced HIV-1 infection and AIDS; cited from earlier work
[2] = test system: latent HIV-1 in a monocytoid (U1) cell line; details: cited from earlier work
MTS = assay type: cell-based; details: printed in the EC50 column; effect TC; read-out: TC Tolerated Concentration (MTS)
LTB4 = assay: Monocyte release of LTB4; assay type: cell-based; details: Homo sapiens, effect INHIB (Inhibition), zymosan A
Method: (§1) Monocyte Release of PGE2, LTB4, and PAF:
(§2) Monocytes isolated as described above, were washed and resuspended in RPMl containing 5 mg/ml HSA at 2×10^6 cells/ml and added to wells of a 48-well plates. The cells were allowed to adhere for 2 hours then washed in HBSS-BSA-HEPES buffer. Test materials were added at four concentrations (175 μl) for 60 minutes; then the monocytes were stimulated by addition of […] zymosan A (175 μl of 2× desired final concentration added). Supernatant medium was collected from the wells after 90 minutes incubation and stored at -20° C. until assayed. Supernatants were assayed for PGE2, LTB4 or PAF using specific scintillation proximity assays (SPA).

GM-CSF = assay: Monocyte release of GM-CSF; assay type: cell-based; details: Homo sapiens, effect INHIB (Inhibition), LPS 100 ng/ml
IL1ra = assay: Monocyte release of IL-1 receptor antagonist; assay type: cell-based, human; set-up: key: NE: No effect; NT: Not tested; INHIB: Inhibition; STIM: Stimulation; TC: Tolerated Concentration
IL1β = assay: Monocyte release of IL-1β; assay type: cell-based, human; set-up: key: NE: No effect; NT: Not tested; INHIB: Inhibition; STIM: Stimulation; TC: Tolerated Concentration; details: LPS 100 ng/ml
PBMC [3] = assay: PBMC proliferation to mitogen PHA; assay type: cell-based; details: Homo sapiens, effect INHIB (Inhibition), PHA 1.0 μg/ml
Method: (§3) Unless otherwise described the medium for human cell culture assays is defined as follows: RPMI-1640 is supplemented with 100 U/ml penicillin, 100 μg/ml streptomycin, 2 mM L-glutamine; 1 mM Na pyruvate; 1% MEM non-essential amino acids and 25 mM HEPES; (all from GIBCO, Gaithersburg, Md.). Complete medium is defined as medium supplemented with 5% pooled, heat-inactivated (56° C., 30 minutes) human AB serum (Pel-freeze, Brown Deer, Wis.).
Human Peripheral Blood Mononuclear Cell (PBMC) Isolation:
Venous blood is obtained from healthy volunteers and mixed with an equal volume of sterile isotonic saline/10 mM HEPES and placed into 50 ml conical polypropylene tubes in 30 ml aliquots. Each aliquot of diluted blood is underlaid with 20-25 ml of sterile Lymphocyte Separation Medium (LSM; Organon-Technika, Durham, N.C.). The tubes are centrifuged at 400 g for 40 minutes at room temperature. […] Cell concentrations for each donor are determined by counting in an haematology analyser (Serono-Baker). […]
PBMC are adjusted to 4×10^6 /ml in complete medium. […] The contents of the wells are harvested onto glass fibre filters using a multiple automated sample harvester (Tomtec), and the incorporated ^3 H-thymidine determined by liquid scintillation spectrophotometry and represented an cpm (counts per minute) incorporated per well.

LDH = assay type: cell-based; details: printed in the EC50 column; effect TC; read-out: TC Tolerated Concentration (LDH)
PAF = assay: Monocyte release of PAF; assay type: cell-based, human; set-up: key: NE: No effect; NT: Not tested; INHIB: Inhibition; STIM: Stimulation; TC: Tolerated Concentration; details: zymosan A
Method: as §1, §2

TISSUE FACTOR = assay: Monocyte procoagulant activity (Tissue Factor); assay type: cell-based; details: Homo sapiens, effect INHIB (Inhibition)
Method: Purified monocytes prepared as described above are suspended at 4×10^6 cells/ml in complete medium. To each well of a 48-well flat bottomed tissue culture plate is added 0.125 ml of cell suspension. Test materials (diluted in complete medium at 2× the desired final concentration) are added in 250 μl volumes to each well. Control wells receive 250 μl of complete medium or 250 μl of IL-4 (diluted to×2 the desired final concentration of 50 ng/ml). All samples are tested at four concentrations in the presence or absence of 100 ng/ml LPS (125 μl of 4× desired final concentration added) and incubated at 37° C. in humidified 5% CO2, for 16 hours. At this time, culture supernatants are aspirated off, and the unattached cells and cell debris are removed by a 2 minute spin in a microcentrifuge at 10,000 g.l The release of cytokines and growth factors is determined in the cell-free supernatants using ELISA capture assays. In this way, testing for IL-1β, TNF-α, IL-1 receptor antagonist, IL-6, IL-8, GM-CSF and PDGF is conducted.
Monocyte Procoagulant Activity (Tissue Factor):
The adhered monocytes remaining on the 48-well tissue culture plates after removal of the supernatants above, are used to measure levels of Tissue Factor production. The cells are solubilized overnight at 4° C. in 10% Triton-×100 in PBS, diluted to 1% Triton-×100 with PBS then assayed by ELISA for Tissue Factor.

SUPEROXIDE = assay: Monocyte superoxide anion (O2) release; assay type: cell-based, human; set-up: key: NE: No effect; NT: Not tested; INHIB: Inhibition; STIM: Stimulation; TC: Tolerated Concentration; details: zymosan A
Method: Monocyte Superoxide Anion (O2) Release:
Monocytes are prepared as described above and resuspended to 5×10^6 /ml in HBSS containing 10 Mm HEPES, 2 g/l glucose, 0.1% BSA, Ph 7.2. To each well of a 96-well flat bottom, tissue culture plate is added 100 μl of cell suspension and 100 μl of buffer or test materials. Samples are run in quadruplicate. The plate is incubated for 60 minutes at 37° C. followed by the addition of 50 μl of buffer containing cytochrome C (5 mg/ml; type VI, horse heart, Sigma) and bovine liver catalase (1500 U/ml; Sigma) in the presence of zymosan A (ZYM); 750 μg/ml; Sigma). The plate is incubated an additional 120 minutes at 37° C. during which the absorbance at 550 nm is monitored using a microplate reader incorporating dedicated software for kinetic analysis (Molecular Devices; Menlo Park, Calif.).

Monocytes = assay: Inhibition of monocyte chemotaxis; assay type: cell-based, human; set-up: key: NE: No effect; NT: Not tested; INHIB: Inhibition; STIM: Stimulation; TC: Tolerated Concentration; details: chemoattractant FMLP
Method: Inhibition of Monocyte Chemotaxis:
Monocytes are prepared as previously described, and resuspended at 5×10^6 cells/ml in HBSS, 0.1% BSA (HBSS-BSA). Fluorophore labeling of the cells is carried out by adding calcein-AM to the above cells at a final concentration of 2 μM. Following a 30 minute incubation at 37° C. in humidified 5% CO2, the labeled monocytes are washed twice and incubated in a range of dilutions of the test materials for 60 minutes at 37° C. in humidified 5% CO2. The pre-treated, calcein-AM loaded cells are then added in triplicate to the wells of the top compartment of a NeuroProbe (Cabin, John, M.D.) 96-well chemotaxis chamber (2×10^5 cells/well) and permitted to migrate through a 10 μm thick bonded polycarbonate membrane (5 μm porosity; NeuroProbe Inc; Cabin, John, M.D.) towards the wells of the lower compartment containing the chemoattractant (FMLP) at 5×10^-9 M. After a 90 minute incubation at 37° C. in a humidified chamber, the wells of the upper chambers are aspirated, the monocyte-associated membrane removed, non-migrating cells wiped off and the filters permitted to air dry to 15 minutes. The number of cells migrating through the membranes are quantified by measuring the fluorescent intensity of the migrating cells in a fluorescent microplate reader (CytoFluor 2300, Millipore Corp., Bedford, Mass.)

IL8 = assay: Monocyte release of IL-8; assay type: cell-based, human; set-up: key: NE: No effect; NT: Not tested; INHIB: Inhibition; STIM: Stimulation; TC: Tolerated Concentration; details: LPS 100 ng/ml
TNFα = assay: Monocyte release of TNF-α; assay type: cell-based; details: Homo sapiens, effect INHIB (Inhibition), LPS 100 ng/ml
IL6 = assay: Monocyte release of IL-6; assay type: cell-based, human; set-up: key: NE: No effect; NT: Not tested; INHIB: Inhibition; STIM: Stimulation; TC: Tolerated Concentration; details: LPS 100 ng/ml
PBMC [4] = assay: Two-way mixed lymphocyte reaction (MLR); assay type: cell-based; details: Homo sapiens, effect INHIB (Inhibition)
Method: as §3
Two-Way Mixed Lymphocyte Reaction (MLR):
PBMC are prepared as described for the mitogen assays, but resuspended to 2×10^6 cells/ml in complete medium. Fifty μl of cell suspension from two different individuals is then added to each well of a 96-well flat bottom tissue culture plate. An additional 100 μl of complete medium, dexamethasone or test compounds are then added to each well, the plates are incubated for 6 days at 37° C., and then pulsed with ^3 H-thymidine and harvested as previously described.

**Q.** With `CC(=O)CCCCn1c(=O)c2c(ncn2C)n(C)c1=O` [Pentoxifylline] as the compound, how does the “mean HIV-1 viral load (levels with either agent alone)” value (HIV-1) read?
**A.** 8- to 9 fold

**Q.** With `Cc1cn([C@H]2C[C@H](N=[N+]=[N-])[C@@H](CO)O2)c(=O)[nH]c1=O` [zidovudine] as the compound, how does the “mean HIV-1 viral load (levels with either agent alone)” value (HIV-1) read?
**A.** 8- to 9 fold

**Q.** With `O=C1CCC(N2C(=O)c3ccccc3C2=O)C(=O)N1` (centres unmarked) [Thalidomide] as the compound, how does the “agonist-induced TNF-α protein and mRNA production” value (TNF-α) read?
**A.** reduction

**Q.** What about the “inhibition of activation of virus in PBMC, patients” value [1] of the same compound?
**A.** 16 out of 17

**Q.** What about the “activation of latent HIV-1” value [2] of the same compound?
**A.** suppress the activation of latent HIV-1

**Q.** Which MNTC (MTS) does the source give for `Nc1nc(Cl)c2ncn(CCCCB(O)O)c2n1` [2-Amino-6-chloro-9-(4-dihydroxyborylbutyl)purine] here?
**A.** 100 µM

**Q.** What about the EC50 (LTB4) of the same compound?
**A.** 90.5 µM

**Q.** And the EC50 (GM-CSF)?
**A.** 6.8 µM

**Q.** What about the “EFFECT (IL1ra)” value (IL1ra) of the same compound?
**A.** NE

**Q.** And the “EFFECT (IL1β)” value (IL1β)?
**A.** NE

**Q.** And the EC50 (PBMC [3])?
**A.** 100 µM

**Q.** And the MNTC (LDH)?
**A.** 100 µM

**Q.** And the “EFFECT (PAF)” value (PAF)?
**A.** NE

**Q.** What about the EC50 (TISSUE FACTOR) of the same compound?
**A.** 2.1 µM

**Q.** What about the “EFFECT (SUPEROXIDE)” value (SUPEROXIDE) of the same compound?
**A.** NE

**Q.** What about the “EFFECT (CHEMOTAXIS)” value (Monocytes) of the same compound?
**A.** NE

**Q.** What about the “EFFECT (IL8)” value (IL8) of the same compound?
**A.** NE

**Q.** What about the EC50 (TNFα) of the same compound?
**A.** 0.57 µM

**Q.** What about the “EFFECT (IL6)” value (IL6) of the same compound?
**A.** NE

**Q.** And the EC50 (PBMC [4])?
**A.** 50 µM
